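GI50 is the concentration that inhibits growth by half. TGI is the concentration that stops growth completely.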
What was measured:
Assay in all cases: NCI anticancer screen, dose series, 384-well format
786-0 renal = system: 786-0 renal
A549 NSCLC = system: A549 NSCLC
BT-549 breast = system: BT-549 breast
COLO 205 colon = system: COLO 205 colon
DU-145 prostate = system: DU-145 prostate
EKVX NSCLC = system: EKVX NSCLC
HCC-2998 colon = system: HCC-2998 colon
HCT-116 colon = system: HCT-116 colon
HCT-15 colon = system: HCT-15 colon
HL-60(TB) leukemia = system: HL-60(TB) leukemia
HOP-62 NSCLC = system: HOP-62 NSCLC
HOP-92 NSCLC = system: HOP-92 NSCLC
HT29 colon = system: HT29 colon
IGROV1 ovarian = system: IGROV1 ovarian
K-562 leukemia = system: K-562 leukemia
KM12 colon = system: KM12 colon
LOX IMVI melanoma = system: LOX IMVI melanoma
M14 melanoma = system: M14 melanoma
MDA-MB-231 breast = system: MDA-MB-231 breast
MDA-MB-435 melanoma = system: MDA-MB-435 melanoma
MDA-MB-468 breast = system: MDA-MB-468 breast
MOLT-4 leukemia = system: MOLT-4 leukemia
NCI-H226 lung = system: NCI-H226 lung
NCI-H23 lung = system: NCI-H23 lung
NCI-H522 lung = system: NCI-H522 lung
NCI/ADR-RES ovarian = system: NCI/ADR-RES ovarian
OVCAR-3 ovarian = system: OVCAR-3 ovarian
OVCAR-5 ovarian = system: OVCAR-5 ovarian
OVCAR-8 ovarian = system: OVCAR-8 ovarian
RPMI-8226 leukemia = system: RPMI-8226 leukemia
RXF 393 renal = system: RXF 393 renal
SF-268 CNS = system: SF-268 CNS
SF-295 CNS = system: SF-295 CNS
SF-539 CNS = system: SF-539 CNS
SK-MEL-2 melanoma = system: SK-MEL-2 melanoma
SK-MEL-28 melanoma = system: SK-MEL-28 melanoma
SN12C renal = system: SN12C renal
SNB-19 CNS = system: SNB-19 CNS
SNB-75 CNS = system: SNB-75 CNS
SR leukemia = system: SR leukemia
SW-620 colon = system: SW-620 colon
T-47D breast = system: T-47D breast
TK-10 renal = system: TK-10 renal
U251 glioblastoma = system: U251 glioblastoma
UACC-257 melanoma = system: UACC-257 melanoma
UACC-62 melanoma = system: UACC-62 melanoma
UO-31 renal = system: UO-31 renal

Molecule `CC1(N)CCN(c2cccnc2NC(=O)c2nc(-c3ncccc3C(F)(F)F)cnc2N)CC1` has a GI50 ([…]-0 renal) of 8.25 µM, a TGI (786-0 renal) of 24 µM and a GI50 (A549 NSCLC) of 25 µM. The TGI (A549 NSCLC) was greater than 65 µM, the GI50 (BT-549 breast) was 8.16 µM and the TGI (BT-549 breast) was 20.6 µM. For the same molecule, the GI50 (COLO 205 colon) was 17.9 µM, the TGI (COLO 205 colon) was greater than 54.6 µM and the GI50 (DU-145 prostate) was 19.3 µM. For the same molecule, the TGI (DU-145 prostate) was greater than 58.8 µM, the GI50 (EKVX NSCLC) was 7.15 µM and the TGI (EKVX NSCLC) was 38.9 µM. It also gave a GI50 (HCC-2998 colon) of 17.9 µM, a TGI (HCC-2998 colon) of 33.4 µM and a GI50 (HCT-116 colon) of 11.6 µM. The TGI (HCT-116 colon) was 26 µM, the GI50 (HCT-15 colon) was 20.7 µM and the TGI (HCT-15 colon) was 56.3 µM. For the same molecule, the GI50 (HL-60(TB) leukemia) was 7.32 µM, the TGI (HL-60(TB) leukemia) was 18 µM and the GI50 (HOP-62 NSCLC) was 28.8 µM. The TGI (HOP-62 NSCLC) was greater than 77.6 µM, the GI50 (HOP-92 NSCLC) was 20.4 µM and the TGI (HOP-92 NSCLC) was 57.6 µM. For the same molecule, the GI50 (HT29 colon) was 17.2 µM, the TGI (HT29 colon) was greater than 58.8 µM and the GI50 (IGROV1 ovarian) was 3.28 µM. For the same molecule, the TGI (IGROV1 ovarian) was 15 µM, the GI50 (K-562 leukemia) was 16.3 µM and the TGI (K-562 leukemia) was 31.3 µM. The GI50 (KM12 colon) was 0.308 µM, the TGI (KM12 colon) was 20.2 µM and the GI50 (LOX IMVI melanoma) was 19 µM. The TGI (LOX IMVI melanoma) was 33.6 µM, the GI50 (M14 melanoma) was 20.3 µM and the TGI (M14 melanoma) was 40.3 µM. It also gave a GI50 (MDA-MB-231 breast) of 20.5 µM, a TGI (MDA-MB-231 breast) of 46.9 µM and a GI50 (MDA-MB-435 melanoma) greater than 56.1 µM. The TGI (MDA-MB-435 melanoma) was greater than 100 µM, the GI50 (MDA-MB-468 breast) was 13.6 µM and the TGI (MDA-MB-468 breast) was 28.2 µM. It also gave a GI50 (MOLT-4 leukemia) of 12.8 µM, a TGI (MOLT-4 leukemia) of 25.6 µM and a GI50 (NCI-H226 lung) of 16.9 µM. The TGI (NCI-H226 lung) was 47.4 µM, the GI50 (NCI-H23 lung) was 29.7 µM and the TGI (NCI-H23 lung) was greater than 78.7 µM. It also gave a GI50 (NCI-H522 lung) of 4.86 µM, a TGI (NCI-H522 lung) of 18.8 µM and a GI50 (NCI/ADR-RES ovarian) greater than 100 µM. It also gave a TGI (NCI/ADR-RES ovarian) greater than 100 µM, a GI50 (OVCAR-3 ovarian) of 15.1 µM and a TGI (OVCAR-3 ovarian) of 44.5 µM. For the same molecule, the GI50 (OVCAR-5 ovarian) was 16.8 µM, the TGI (OVCAR-5 ovarian) was 48.1 µM and the GI50 (OVCAR-8 ovarian) was 30.9 µM. It also gave a TGI (OVCAR-8 ovarian) greater than 70.5 µM, a GI50 (RPMI-8226 leukemia) of 10.4 µM and a TGI (RPMI-8226 leukemia) of 32.8 µM. It also gave a GI50 (RXF 393 renal) of 12.5 µM, a TGI (RXF 393 renal) of 25.5 µM and a GI50 (SF-268 CNS) of 19.9 µM. For the same molecule, the TGI (SF-268 CNS) was 47 µM, the GI50 (SF-295 CNS) was greater than 49.3 µM and the TGI (SF-295 CNS) was greater than 72.6 µM. The GI50 (SF-539 CNS) was 24 µM, the TGI (SF-539 CNS) was greater than 51.2 µM and the GI50 (SK-MEL-2 melanoma) was 18.4 µM. It also gave a TGI (SK-MEL-2 melanoma) of 47.2 µM, a GI50 (SK-MEL-28 melanoma) of 24.2 µM and a TGI (SK-MEL-28 melanoma) greater than 62.3 µM. It also gave a GI50 (SN12C renal) of 21 µM, a TGI (SN12C renal) of 56.8 µM and a GI50 (SNB-19 CNS) of 27.8 µM. It also gave a TGI (SNB-19 CNS) greater than 76.7 µM, a GI50 (SNB-75 CNS) of 17 µM and a TGI (SNB-75 CNS) of 48.2 µM. The GI50 (SR leukemia) was 9.47 µM, the TGI (SR leukemia) was 21.5 µM and the GI50 (SW-620 colon) was 19.3 µM. For the same molecule, the TGI (SW-620 colon) was 60.6 µM, the GI50 (T-47D breast) was 11.6 µM and the TGI (T-47D breast) was 26.9 µM. The GI50 (TK-10 renal) was 7.5 µM, the TGI (TK-10 renal) was 26.1 µM and the GI50 (U251 glioblastoma) was 13.6 µM. It also gave a TGI (U251 glioblastoma) of 30.5 µM, a GI50 (UACC-257 melanoma) of 7.77 µM and a TGI (UACC-257 melanoma) of 20.8 µM. The GI50 (UACC-62 melanoma) was 19.4 µM, the TGI (UACC-62 melanoma) was greater than 53.4 µM and the GI50 (UO-31 renal) was 31 µM. It also gave a TGI (UO-31 renal) greater than 100 µM.
